{"source": "patent US10987324B2", "about": "“Methods and compositions for the treatment of seizure-related disorders” (Adamas Pharmaceuticals, Inc., priority 2015, dated 2021)", "origin": "cited, not measured here", "key": {"[1]": {"settings": "cited from earlier work"}, "[2]": {"settings": "cited from earlier work", "remark": "listed apart in the source"}}, "note": "Read-outs that look alike come from different tables or passages of the source.", "data": [{"smiles": "CCCC(CCC)C(=O)O", "note": "[divalproex sodium]", "values": [{"measurement": "elimination / plasma / pharmacokinetic half-life", "setting": "[1]; human", "value": "about 15 hours"}]}, {"smiles": "CCCC(CCC)C(=O)O", "note": "[valproic acid, 2-propylpentanoic acid]", "values": [{"measurement": "elimination / plasma / pharmacokinetic half-life", "setting": "[1]; human", "value": "9 to 16", "unit": "h"}]}, {"smiles": "CC(=O)N[C@H](CO)C(=O)NCc1ccccc1", "note": "[O-desmethyl metabolite]", "values": [{"measurement": "reduction of concentrations and amount excreted into urine", "setting": "[1]; CYP2C19 poor metabolizers compared to extensive metabolizers", "value": "about 70%"}, {"measurement": "elimination / plasma / pharmacokinetic half-life", "setting": "[1]; human", "value": "15 to 23", "unit": "h"}, {"measurement": "Tmax", "setting": "[1]; oral dosing, human", "value": "0.5 to 12", "unit": "h"}]}, {"smiles": "NC(=O)N1c2ccccc2CC(O)c2ccccc21", "note": "(stereo not shown) [MDH, 10-monohydroxy metabolite]", "values": [{"measurement": "elimination / plasma / pharmacokinetic half-life", "setting": "[1]; human", "value": 9, "unit": "h"}]}, {"smiles": "CC[C@@H](C(N)=O)N1CCCC1=O", "note": "[levetiracetam, (S)-alpha-ethyl-2-oxo-pyrrolidine acetamide]", "values": [{"measurement": "Tmax", "setting": "[1]; fasted subjects", "value": "approximately one"}, {"measurement": "elimination / plasma / pharmacokinetic half-life", "setting": "[1]; human", "value": "about 7 hours"}, {"measurement": "elimination / plasma / pharmacokinetic half-life", "setting": "[1]; human, listed as Levetiracetam", "value": "6 to 8", "unit": "h"}, {"measurement": "AUC0-24", "setting": "[1]; in vivo", "value": "300 to 350", "unit": "µg·h/mL"}, {"measurement": "renal excretion rate", "setting": "[1]; mostly unmetabolized form", "value": 0.6, "unit": "mL/min/kg"}, {"measurement": "patients reporting somnolence", "setting": "[2]; 4000 mg daily, untitrated study", "value": "Approximately 45%"}, {"measurement": "patients with somnolence", "setting": "[2]; compared to 8% with placebo", "value": 14.8, "unit": "%"}]}, {"smiles": "C=CC(N)CCC(=O)O", "note": "(racemic) [vigabatrin, (RS)-4-aminohex-5-enoic acid]", "values": [{"measurement": "Cmax", "setting": "[1]; at steady state", "value": 61000, "unit": "ng/mL"}, {"measurement": "T1/2", "setting": "[1]; at steady state", "value": 7.5, "unit": "h"}, {"measurement": "elimination / plasma / pharmacokinetic half-life", "setting": "[1]; human", "value": "about 10 hours"}, {"measurement": "Tmax", "setting": "[1]; oral dosing, human", "value": "approximately 1 hours"}]}, {"smiles": "NC(=O)N1c2ccccc2CC(=O)c2ccccc21", "note": "[oxcarbazepine, 10,11-dihydro-10-oxo-5H-dibenz(b,f)azepine-5-carboxamide]", "values": [{"measurement": "AUC0-24", "setting": "[1]; 600 mg IR BID", "value": 16.8, "unit": "µg·h/mL"}, {"measurement": "Cmax", "setting": "[1]; 600 mg IR BID", "value": 2720, "unit": "ng/mL"}, {"measurement": "elimination / plasma / pharmacokinetic half-life", "setting": "[1]; human", "value": "about 20 hours"}, {"measurement": "elimination / plasma / pharmacokinetic half-life", "setting": "[1]; human, listed as Oxcarbazepine", "value": "approximately 2 hours"}, {"measurement": "Tmax", "setting": "[1]; oral dosing, human", "value": "approximately 3 hours"}]}]}
